Results taken from the SangsterLogP compilation.

experiment: method code SF-AS, from DOI: 10.1002/ardp.19903230114, PMID: 2334269; details: pH 7.4

| Structure (SMILES) | logD |
| --- | --- |
| CCOC1(c2ccccc2)CN2CCCCC2CO1 (configuration not stated) | 1.87 |
| OC1(c2ccccc2)CN2CCCCC2CO1 (configuration not stated) | 1.77 |
| CN1CC(O)(c2ccccc2)OC2CCCCC21 (configuration not stated) | 1.81 |
| c1ccc(COC2(c3ccccc3)CN3CCCCC3CO2)cc1 (configuration not stated) | 1.95 |
| CC(C)COC1(c2ccccc2)CN2CCCCC2CO1 (configuration not stated) | 1.95 |

Now from value to molecule:

| logD | Structure (SMILES) |
| --- | --- |
| 1.91 | CCCOC1(c2ccccc2)CN(C)C2CCCCC2O1 (configuration not stated) |
| 1.94 | CCCCOC1(c2ccccc2)CN2CCCCC2CO1 (configuration not stated) |
| 1.92 | CCCOC1(c2ccccc2)CN2CCCCC2CO1 (configuration not stated) |
| 2.03 | CCCCN1CCOC(OCCC)(c2ccccc2)C1 (configuration not stated) |
| 2.05 | CCCCCOC1(c2ccccc2)CN(C)C2CCCCC2O1 (configuration not stated) |
| 2 | CCCCN1CCOC(OCC)(c2ccccc2)C1 (configuration not stated) |
| 2.13 | CCCCOC1(c2ccccc2)CN(CCCC)CCO1 (configuration not stated) |
